“And” between values parts separate entries of the source, which are not always exact repeats. Equal entries are not always repeated.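 96-well plates; 48 h exposure; 5 concentrations. Endpoints by linear interpolation between flanking doses. Not reached: highest tested concentration assigned. GI50: concentration for 50% inhibition of growth. TGI: concentration producing complete growth inhibition.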
What was measured:
Experiment in all cases: growth of human tumour cells (NCI), 48 h
[1] = test system: SN12C renal
[2] = test system: CAKI-1 renal
[3] = test system: KM12 colon
[4] = test system: NCI-H460 lung
[5] = test system: UO-31 renal
[6] = test system: PC-3 prostate
[7] = test system: HCT-15 colon
[8] = test system: T-47D breast
[9] = test system: HOP-62 NSCLC
[10] = test system: SW-620 colon

Row | SMILES | GI50 [1] | TGI [1] | GI50 [2] | TGI [2] | GI50 [3] | TGI [3] | GI50 [4] | TGI [4] | GI50 [5] | TGI [5] | GI50 [6] | TGI [6] | GI50 [7] | TGI [7] | GI50 [8] | TGI [8] | GI50 [9] | TGI [9] | GI50 [10] | TGI [10]
1 | CC(=O)Nc1cc2c3c(cccc3c1)-c1ccccc1-2 | 0.72 µM | > 100 µM | 4 µM | 23.8 µM | 32.7 µM | > 100 µM | 29.6 µM | > 100 µM | 0.356 µM | 15.3 µM | 14.8 µM | > 100 µM | > 100 µM | > 100 µM | 37.3 µM | > 100 µM | 22.7 µM | 69.5 µM | 95.6 µM | > 100 µM
2 | Cc1cnc(-c2ccc(-c3ccc(NC(=O)Nc4c(F)cc(F)cc4F)cc3F)c3c2C(=O)NC3)[nH]1 | 1.29 µM and 0.432 µM | 4.57 µM and 3.41 µM | 1.74 µM | 27.5 µM | < 0.01 µM | 2.58 µM and 6.87 µM | 0.989 µM | 2.75 µM | 0.594 µM and 1.46 µM | > 100 µM | 1.41 µM and 2.57 µM | 3.82 µM and 30.1 µM | 1.82 µM and 0.948 µM | > 100 µM | 2.98 µM and 12.6 µM | 20.5 µM and 47.5 µM | – | 3.07 µM and 11 µM | 0.43 µM | 2.19 µM
3 | C=C(Br)COc1ccc2c(C)cc(=O)oc2c1 | – | > 100 µM | – | > 100 µM | – | 12.1 µM | – | > 100 µM | – | > 100 µM | – | > 100 µM | – | > 100 µM | – | 87.2 µM | – | > 100 µM | – | > 100 µM
4 | CC(=O)N[C@@H](Cc1ccc(OP(=O)(O)O)cc1)C(=O)N[C@H]1CCC(=O)N2CCC[C@@H](C(=O)NC3CCc4ccccc43)N2C1=O (some centres undefined) | > 25 µM | > 25 µM | > 25 µM | > 25 µM | > 25 µM | > 25 µM | > 25 µM | > 25 µM | > 25 µM | > 25 µM | > 25 µM | > 25 µM | > 25 µM | > 25 µM | > 25 µM | > 25 µM | > 25 µM | > 25 µM | > 25 µM | > 25 µM
5 | C[C@]12CC[C@H]3[C@@H](CC[C@]4(O)C[C@@H](O[C@@H]5O[C@H](CO)[C@@H](O[C@@H]6OC[C@@H](O)[C@H](O)[C@H]6O)[C@H](O)[C@H]5O)CC[C@]34C=O)[C@@]1(O)CC[C@@H]2C1=CC(=O)OC1 | 0.414 µM | 2.49 µM | 0.886 µM | 2.26 µM | 1.98 µM | 8.23 µM | 0.379 µM | 1.31 µM | 1.54 µM | 5.01 µM | 0.78 µM | 3.57 µM | 1.6 µM | 5.12 µM | 1.55 µM | 7.77 µM | 0.702 µM | 3 µM | 1.35 µM | 4.67 µM
6 | CC/C(=C(/c1ccc(OCCN(C)C)cc1)c1ccc(OC(=O)CCCCCCCCC(=O)c2c(C)[nH]c(/C=C3\N=C(c4ccc[nH]4)C=C3OC)c2C)cc1)c1ccccc1 | 7.55 µM | > 100 µM | 7 µM | > 100 µM | 5.25 µM | > 100 µM | 4.26 µM | > 100 µM | 4.45 µM | > 100 µM | 5.86 µM | > 100 µM | 5.12 µM | 97.8 µM | 3.56 µM | > 100 µM | 17 µM | > 100 µM | 3.72 µM | 14 µM
7 | Cc1cc(-c2cc(OC(=O)c3ccccc3)ccc2Cl)cc2nnc(Nc3ccc(OCCN4CCCC4)cc3)nc12 | 1.49 µM | 3.1 µM | 1.36 µM | 2.69 µM | 1.84 µM | 3.42 µM | 1.72 µM | 3.3 µM | 1.19 µM | 2.44 µM | 1.16 µM | 2.47 µM | 0.197 µM | 0.393 µM | 1.57 µM | 3.55 µM | 1.55 µM | 3.27 µM | 0.265 µM | 0.571 µM
8 | CN1CCN(CCC=C2c3ccccc3Sc3ccc(S(=O)(=O)N(C)C)cc32)CC1 | 6.23 µM and 13.8 µM | 34.6 µM and > 49.3 µM | 3.45 µM and 5.41 µM | 20.6 µM and 23.9 µM | 3.96 µM and 4.68 µM | 24.3 µM and 16.4 µM | 3.51 µM and 3.47 µM | 14.8 µM and 14 µM | 3.46 µM and 4.23 µM | 25.1 µM and 21.1 µM | 3.7 µM and 7.99 µM | 32.5 µM and > 43.1 µM | 3.3 µM and 2.52 µM | > 100 µM and 10.3 µM | 1.52 µM and 3.85 µM | 3.42 µM and 16.7 µM | 5.73 µM and 14.6 µM | 23.3 µM and 33 µM | 3.58 µM and 2.85 µM | 19.9 µM and 8.62 µM
9 | COc1c(B(O)O)cccc1-c1nc2c(F)cc3n[nH]c(C)c3c2c2c1CCCC2 | 0.854 µM | > 50 µM | 0.0106 µM | 0.213 µM | 1.31 µM | > 50 µM | 1.28 µM | > 50 µM | 0.225 µM | 3.07 µM | 1.46 µM | > 50 µM | 1.49 µM | > 50 µM | 1.33 µM | > 23.2 µM | 0.303 µM | > 50 µM | 0.727 µM | > 50 µM

Reference: PubChem BioAssay (NCI)
